The assay deals with T1, human factor Xa (Homo sapiens, UniProt P00742).
T1 construct: human factor Xa; purchased Enzyme Research Laboratories, Inc; South Bend, Ind
T1 sequence (P00742 235-488 limits assumed): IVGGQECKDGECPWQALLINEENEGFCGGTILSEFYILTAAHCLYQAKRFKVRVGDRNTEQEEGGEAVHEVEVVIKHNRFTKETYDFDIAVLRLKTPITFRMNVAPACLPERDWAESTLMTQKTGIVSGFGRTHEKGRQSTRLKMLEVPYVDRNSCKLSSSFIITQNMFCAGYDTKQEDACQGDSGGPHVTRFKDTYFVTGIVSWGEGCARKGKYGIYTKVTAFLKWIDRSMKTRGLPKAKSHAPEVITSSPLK
T1 sequence (P00742 41-179 partner limits assumed): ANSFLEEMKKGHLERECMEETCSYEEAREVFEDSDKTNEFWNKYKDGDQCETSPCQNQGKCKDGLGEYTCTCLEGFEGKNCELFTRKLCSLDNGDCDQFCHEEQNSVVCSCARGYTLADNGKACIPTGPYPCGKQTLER
Briefly: Factor Xa assay (chromogenic, purified enzyme). Format: biochemical. Particulars: inhibition constant for factor Xa; chromogenic substrate S-2765 140 μM, enzyme 0.5 nM, 25° C.; Ki=IC50/{1+(substrate concentration/Km)}; read-out: Ki (FXa). Here is the method: Purified enzymes were used in chromogenic assays.
The assay was performed by pre-incubating the compound of formula I or Ia plus enzyme for 10 min. Then the assay was initiated by adding substrate to obtain a final volume of 100 μl. The initial velocity of chromogenic substrate hydrolysis was measured by the change in absorbance at 405 nm using a Bio-tek Instruments kinetic plate reader (Ceres UV900HDi) at 25° C. during the linear portion of the time course (usually 1.5 min after addition of substrate).
Consider `CC(C)N1CCC(NS(=O)(=O)C(C)CNC(=O)c2ccc(Cl)s2)CC1` (racemic) [Example 26, 5-Chloro-thiophene-2-carboxylic acid [2-(1-isopropyl-piperidin-4-ylsulfamoyl)-propyl]-amide], for which the inhibition constant Ki (in general, a measure of affinity in units of concentration, obtained from inhibition or displacement) worked out at 13 nM. As to `CC(C)N1CCC(N2C(=O)CC(CNC(=O)c3ccc(Cl)s3)S2(=O)=O)CC1` (racemic) [Example 31, 5-Chloro-thiophene-2-carboxylic acid [2-(1-isopropyl-piperidin-4-yl)-1,1,3-trioxo-1λ^6-isothiazolidin-5-ylmethyl]-amide], the Ki turned out to be 32 nM. With `CC(C)N1CCC(NS(=O)(=O)CCNC(=O)c2ccc(Cl)s2)CC1` [Example 1, 5-Chloro-thiophene-2-carboxylic acid [2-(1-isopropyl-piperidin-4-ylsulfamoyl)-ethyl]-amide] the figure was 10 nM; with `O=C(NCCS(=O)(=O)NC1CCN(C2CC2)CC1)c1ccc(Cl)s1` [Example 2, 5-Chloro-thiophene-2-carboxylic acid [2-(1-cyclopropyl-piperidin-4-ylsulfamoyl)-ethyl]-amide], 167 nM.

As to `CC(C)N1CCC(N(C)S(=O)(=O)CCNC(=O)c2ccc(Cl)s2)CC1` [Example 3, 5-Chloro-thiophene-2-carboxylic acid {2-[(1-isopropyl-piperidin-4-yl)-methyl-sulfamoyl]-ethyl}-amide], the Ki stood at 7 nM. Consider `CC(C)N1CCC(N(CC(F)(F)F)S(=O)(=O)CCNC(=O)c2ccc(Cl)s2)CC1` [Example 4, 5-Chloro-thiophene-2-carboxylic acid {2-[(1-isopropyl-piperidin-4-yl)-(2,2,2-trifluoro-ethyl)-sulfamoyl]-ethyl}-amide], for which the Ki was determined as 15 nM. With `O=C(NCCS(=O)(=O)NC1CCN(c2ccncc2)CC1)c1ccc(Cl)s1` [Example 5, 5-Chloro-thiophene-2-carboxylic acid [2-(3,4,5,6-tetrahydro-2H-[1,4′]bipyridinyl-4-ylsulfamoyl)-ethyl]-amide] the figure was 66 nM.

For the compound `O=C(NCCS(=O)(=O)NC1CNC1)c1ccc(Cl)s1` [Example 6, 5-Chloro-thiophene-2-carboxylic acid[2-(azetidin-3-ylsulfamoyl)-ethyl]-amide], the Ki is 20500 nM. With `CC(C)N1CC(NS(=O)(=O)CCNC(=O)c2ccc(Cl)s2)C1` [Example 7, 5-Chloro-thiophene-2-carboxylic acid [2-(1-isopropyl-azetidin-3-ylsulfamoyl)-ethyl]-amide], the Ki came out at 7250 nM.

With `O=C(NCCS(=O)(=O)NN1CCN(Cc2ccccc2)CC1)c1ccc(Cl)s1` [Example 8, 5-Chloro-thiophene-2-carboxylic acid [2-(4-benzyl-piperazin-1-ylsulfamoyl)-ethyl]-amide], the Ki was found to be 1100 nM. As for `CC(C)N1CCC(NS(=O)(=O)CCNC(=O)c2ccc(Br)s2)CC1` [Example 9, 5-Bromo-thiophene-2-carboxylic acid[2-(1-isopropyl-piperidin-4-ylsulfamoyl)-ethyl]-amide], the Ki amounted to 6 nM. With `Cc1ccc(C(=O)NCCS(=O)(=O)NC2CCN(C(C)C)CC2)s1` [Example 10, 5-Methyl-thiophene-2-carboxylic acid [2-(1-isopropyl-piperidin-4-ylsulfamoyl)-ethyl]-amide] the figure was 259 nM. In the case of `CC(C)N1CCC(NS(=O)(=O)CCNC(=O)c2ccc(Br)o2)CC1` [Example 11, 5-Bromo-furan-2-carboxylic acid [2-(1-isopropyl-piperidin-4-ylsulfamoyl)-ethyl]-amide], the Ki was 3150 nM. Consider `CC(C)N1CCC(NS(=O)(=O)CCNC(=O)c2ccc(Cl)cc2)CC1` [Example 12, 4-Chloro-N-[2-(1-isopropyl-piperidin-4-ylsulfamoyl)-ethyl]-benzamide], for which the Ki worked out at 572 nM. With `CC(C)N1CCC(NS(=O)(=O)CCNC(=O)c2ccc(Cl)cn2)CC1` [Example 13, 5-Chloro-pyridine-2-carboxylic acid [2-(1-isopropyl-piperidin-4-ylsulfamoyl)-ethyl]-amide] the figure was 4470 nM. For the compound `CC(C)N1CCC(NS(=O)(=O)CCNC(=O)c2cccc(Cl)c2)CC1` [Example 14, 3-Chloro-N-[2-(1-isopropyl-piperidin-4-ylsulfamoyl)-ethyl]-benzamide], the Ki was found to be 19600 nM. As to `COCCN(C1CCN(C(C)C)CC1)S(=O)(=O)CCNC(=O)c1ccc(Cl)s1` [Example 15, 5-Chloro-thiophene-2-carboxylic acid {2-[(1-isopropyl-piperidin-4-yl)-(2-methoxy-ethyl)-sulfamoyl]-ethyl}-amide], the Ki turned out to be 5 nM. For the compound `CC(C)N1CCC(N(CCO)S(=O)(=O)CCNC(=O)c2ccc(Cl)s2)CC1` [Example 16, 5-Chloro-thiophene-2-carboxylic acid {2-[(2-hydroxy-ethyl)-(1-isopropyl-piperidin-4-yl)-sulfamoyl]-ethyl}-amide], the Ki was 4 nM. The result for `CC(C)N1CCC(N(CCCO)S(=O)(=O)CCNC(=O)c2ccc(Cl)s2)CC1` [Example 17, 5-Chloro-thiophene-2-carboxylic acid {2-[(3-hydroxy-propyl)-(1-isopropyl-piperidin-4-yl)-sulfamoyl]-ethyl}-amide] reads 4 nM; that for `CC(C)N1CCC(N(CC(=O)N(C)C)S(=O)(=O)CCNC(=O)c2ccc(Cl)s2)CC1` [Example 18, 5-Chloro-thiophene-2-carboxylic acid {2-[dimethylcarbamoylmethyl-(1-isopropyl-piperidin-4-yl)-sulfamoyl]-ethyl}-amide], 5 nM; that for `CC(C)N1CCC(N(CC(=O)N2CCOCC2)S(=O)(=O)CCNC(=O)c2ccc(Cl)s2)CC1` [Example 19, 5-Chloro-thiophene-2-carboxylic acid {2-[(1-isopropyl-piperidin-4-yl)-(2-morpholin-4-yl-2-oxo-ethyl)-sulfamoyl]-ethyl}-amide], 5 nM. The result for `CC(C)N1CCC(N(CC(N)=O)S(=O)(=O)CCNC(=O)c2ccc(Cl)s2)CC1` [Example 20, 5-Chloro-thiophene-2-carboxylic acid {2-[carbamoylmethyl-(1-isopropyl-piperidin-4-yl)-sulfamoyl]-ethyl}-amide] reads 3 nM; that for `Cc1cc(CN(C2CCN(C(C)C)CC2)S(=O)(=O)CCNC(=O)c2ccc(Cl)s2)no1` [Example 21, 5-Chloro-thiophene-2-carboxylic acid {2-[(1-isopropyl-piperidin-4-yl)-(5-methyl-isoxazol-3-ylmethyl)-sulfamoyl]-ethyl}-amide], 4 nM. The result for `CC(C)N1CCC(N(Cc2cccnc2)S(=O)(=O)CCNC(=O)c2ccc(Cl)s2)CC1` [Example 22, 5-Chloro-thiophene-2-carboxylic acid {2-[(1-isopropyl-piperidin-4-yl)-pyridin-3-ylmethyl-sulfamoyl]-ethyl}-amide] reads 8 nM.

With `CC(C)N1CCC(N(Cc2nccs2)S(=O)(=O)CCNC(=O)c2ccc(Cl)s2)CC1` [Example 23, 5-Chloro-thiophene-2-carboxylic acid {2-[(1-isopropyl-piperidin-4-yl)-thiazol-2-ylmethyl-sulfamoyl]-ethyl}-amide], the Ki is 6 nM. With `CCCNC(=O)N(C1CCN(C(C)C)CC1)S(=O)(=O)CCNC(=O)c1ccc(Cl)s1` [Example 24, 5-Chloro-thiophene-2-carboxylic acid {2-[(1-isopropyl-piperidin-4-yl)-propylaminocarbonyl-sulfamoyl]-ethyl}-amide] the figure was 4 nM; with `CC(=O)N(C1CCN(C(C)C)CC1)S(=O)(=O)CCNC(=O)c1ccc(Cl)s1` [Example 25, 5-Chloro-thiophene-2-carboxylic acid {2-[acetyl-(1-isopropyl-piperidin-4-yl)-sulfamoyl]-ethyl}-amide], 3 nM; with `CC(C)N1CCC(NS(=O)(=O)C[C@H](CO)NC(=O)c2ccc(Cl)s2)CC1` [Example 27, 5-Chloro-thiophene-2-carboxylic acid [(S)-1-hydroxymethyl-2-(1-isopropyl-piperidin-4-ylsulfamoyl)-ethyl]-amide], 1250 nM.

As for `CC(C)N1CCC(NS(=O)(=O)CC(C)(C)NC(=O)c2ccc(Cl)s2)CC1` [Example 28, 5-Chloro-thiophene-2-carboxylic acid [2-(1-isopropyl-piperidin-4-ylsulfamoyl)-1,1-dimethyl-ethyl]-amide], the Ki was found to be 3390 nM. Consider `CC(C)N1CCC(NS(=O)(=O)CCCNC(=O)c2ccc(Cl)s2)CC1` [Example 29, 5-Chloro-thiophene-2-carboxylic acid [3-(1-isopropyl-piperidin-4-ylsulfamoyl)-propyl]-amide], for which the Ki worked out at 399 nM. In the case of `CC(C)N1CCC(N(Cc2cc(-c3ccc(Cl)s3)on2)S(=O)(=O)CCNC(=O)c2ccc(Cl)s2)CC1` [Example 32, 5-Chloro-thiophene-2-carboxylic acid {2-[[5-(5-chloro-thiophen-2-yl)-isoxazol-3-ylmethyl]-(1-isopropyl-piperidin-4-yl)-sulfamoyl]-ethyl}-amide], the Ki was determined as 6 nM. The result for `CC(C)N1CCC(N(Cc2nnc(C3CC3)s2)S(=O)(=O)CCNC(=O)c2ccc(Cl)s2)CC1` [Example 33, 5-Chloro-thiophene-2-carboxylic acid {2-[(5-cyclopropyl-[1,3,4]thiadiazol-2-ylmethyl)-(1-isopropyl-piperidin-4-yl)-sulfamoyl]-ethyl}-amide] reads 6 nM.

Source of the values: patent publication US8088925B2, “Heteroaryl-carboxylic acid (sulfamoyl alkyl) amide-derivatives as factor Xa inhibitors” (priority 2005, dated 2012).
